{"source": "patent US6670189B2", "about": "“Fumonisin detoxification compositions and methods” (priority 1994, dated 2003)", "key": {"[1]": {"test_system": "maize coleoptiles", "assay": "Effect of FB1 and AP1 on maize coleoptiles", "set-up": "key to Injury of maize coleoptiles: + = brown necrotic discoloration of coleoptile; − = no symptoms (same as water control)", "settings": "for Injury of maize coleoptiles: 2 days dark at 28° C. then 3 days light", "description": "Maize coleoptiles from 4 day dark-grown germinated maize seeds were excised above the growing point and placed in 96-well microtiter plates in the presence of 60 microliters of sterile distilled water containing FB1 or AP1 at approximately equimolar concentrations of 1.5, 0.5, 0.15, 0.05, 0.015, 0.005, 0.0015, or 0.0005 millimolar, along with water controls. After 2 days in the dark at 28° C. the coleoptiles were placed in the light and incubated another 3 days."}, "[2]": {"test_system": "tomato", "settings": "Lamprecht et al. 1994; cited from earlier work"}, "[3]": {"test_system": "AP1 catabolase", "assay": "AP1 catabolase activity: modification of amine-containing substrates by crude cell-free extract", "assay_type": "biochemical, Exophiala spinifera", "settings": "for modification by the crude extract (catabolase): cell-free extract of substrate-induced Exophiala spinifera, TLC on C18 silica", "description": "A cell-free extract that contains the catabolase activity was obtained by subjecting substrate-induced Exophiala spinifera cells to disruption using a bead beater in sodium acetate buffer, pH 5.2, and recovering the cell-free supernatant by centrifugation and 0.45 micron filtration. Catabolic activity is assayed by incubating extracts with AP1 (hydrolyzed fumonisin B1 backbone) or 14C-labelled AP1 with the extract and evaluating by TLC on C18 silica. The product AP1-N1 has a lower Rf than AP1 and is detected either by radiolabel scan or by H2SO4 spray/charring of the TLC plate. […] Other amine-containing substrates were tested for modification by the crude extract."}, "[4]": {"test_system": "maize tissue cultured cells (Black Mexican Sweet, BMS)", "settings": "for concentration at which growth of BMS cells was inhibited: liquid culture, 96-well plates, 1 week, cell density versus water control"}, "[5]": {"test_system": "Lemna tissues", "settings": "Vesonder et al. 1992; cited from earlier work"}, "[6]": {"test_system": "FB1 Hydrolase activity", "assay": "Effect of various treatments on modification of FB1 by E. spinifera esterase (culture filtrates)", "assay_type": "biochemical, Exophiala spinifera", "set-up": "key: − = no hydrolysis; ± = trace amount of hydrolysis; + = incomplete hydrolysis; ++ = incomplete hydrolysis; +++ = complete hydrolysis", "settings": "then incubated with FB1 overnight at 37° C.", "description": "(§1) Analytical thin-layer chromatography was carried out on 100% silanized C18 silica plates (Sigma #T-7020; 10×10 cm; 0.1 mm thick) by a modification of the published method of Rottinghaus (Rottinghaus, G. E., Coatney, C. E., and Minor, H. C., A rapid, sensitive thin layer chromatography procedure for the detection of fumonisin b-1 and b-2, J Vet Diagn Invest, 4, 326 (1992), and herein incorporated by reference).\n(§2) Sample lanes were pre-wet with methanol to facilitate sample application. After application of from 0.1 to 2 μl of aqueous sample, the plates were air-dried and developed in MeOH:4% KCl (3:2) or MeOH:0.2 M KOH (3:2) and then sprayed successively with 0.1 M sodium borate (pH 9.5) and fluorescamine (0.4 mg/ml in acetonitrile). Plates were air-dried and viewed under long wave UV.\nThe esterase isolated from E. spinifera was then subjected to other treatments, including proteases, to determine whether and how the enzyme would function in various environments."}, "[7]": {"test_system": "maize callus", "settings": "solid medium; Van Asch et al. 1992; cited from earlier work"}, "[8]": {"assay": "Hydrolysis of fumonisin B1 by commercial esterases and hydrolases", "assay_type": "biochemical", "set-up": "key: − = no hydrolysis; ± = trace amount of hydrolysis; + = incomplete hydrolysis; ++ = incomplete hydrolysis; +++ = complete hydrolysis", "settings": "assay pH 8.0; overnight at 37° C. with 1 mg/ml fumonisin", "description": "as §1, §2\nThe fumonisin esterase isolated from E. spinifera and R. atrovirens was compared with other known esterases from various sources as supplied by commercial vendors."}, "[9]": {"settings": "treatment 0.01 mg/ml, 16 hr, 37° C., pH 5.2"}}, "data": [{"molecule": "CCCC[C@@H](C)[C@@H](O)[C@@H](O)C[C@@H](C)C[C@H](O)CCCC[C@@H](O)C[C@H](O)[C@H](C)N", "note": "[AP1]", "values": [{"measurement": "Injury of maize coleoptiles", "setting": "[1]; 1.5 mM", "value": "+"}, {"measurement": "Injury of maize coleoptiles", "setting": "[1]; .0005 mM", "value": "−"}, {"measurement": "Injury of maize coleoptiles", "setting": "[1]; .0015 mM", "value": "−"}, {"measurement": "Injury of maize coleoptiles", "setting": "[1]; .005 mM", "value": "−"}, {"measurement": "Injury of maize coleoptiles", "setting": "[1]; .015 mM", "value": "−"}, {"measurement": "Injury of maize coleoptiles", "setting": "[1]; .05 mM", "value": "−"}, {"measurement": "Injury of maize coleoptiles", "setting": "[1]; .15 mM", "value": "−"}, {"measurement": "Injury of maize coleoptiles", "setting": "[1]; .5 mM", "value": "−"}, {"measurement": "difference in toxicity between FB1 and AP1 to maize coleoptiles", "setting": "[1]; AP1 less toxic than FB1", "value": "≥ 30", "unit": "fold"}, {"measurement": "reduction in toxicity to tomato by AP1 versus FB1", "setting": "[2]", "value": "~100", "unit": "fold"}, {"measurement": "time to complete conversion to AP1-N1", "setting": "[3]; pH 9", "value": 30, "unit": "min"}, {"measurement": "difference in toxicity (FB1 versus AP1) to maize tissue cultured cells", "setting": "[4]", "value": "~100", "unit": "fold"}, {"measurement": "concentration at which growth of BMS cells was inhibited", "setting": "[4]", "value": 40000, "unit": "nM"}, {"measurement": "AP1 less toxic (than FB1) in Lemna tissues", "setting": "[5]", "value": "approx. 40 fold"}]}, {"molecule": "[Ca+2]", "note": "[Ca^++]", "values": [{"measurement": "FB1 Hydrolase activity", "setting": "[6]; treatment 50 mM", "value": "+++"}]}, {"molecule": "O[C@@H](CS)[C@@H](O)CS", "note": "[DTT]", "values": [{"measurement": "FB1 Hydrolase activity", "setting": "[6]; treatment 25 mM", "value": "+++"}]}, {"molecule": "O=C(O)CN(CCN(CC(=O)O)CC(=O)O)CC(=O)O", "note": "[EDTA]", "values": [{"measurement": "FB1 Hydrolase activity", "setting": "[6]; treatment 50 mM", "value": "++"}]}, {"molecule": "CCCC[C@@H](C)[C@@H](OC(=O)C[C@@H](CC(=O)O)C(=O)O)[C@H](C[C@@H](C)C[C@H](O)CCCC[C@@H](O)C[C@H](O)[C@H](C)N)OC(=O)C[C@@H](CC(=O)O)C(=O)O", "note": "[FB1, Fumonisin B1]", "values": [{"measurement": "Injury of maize coleoptiles", "setting": "[1]; 1.5 mM", "value": "+"}, {"measurement": "Injury of maize coleoptiles", "setting": "[1]; .0005 mM", "value": "−"}, {"measurement": "Injury of maize coleoptiles", "setting": "[1]; .0015 mM", "value": "−"}, {"measurement": "Injury of maize coleoptiles", "setting": "[1]; .005 mM", "value": "−"}, {"measurement": "Injury of maize coleoptiles", "setting": "[1]; .05 mM", "value": "+"}, {"measurement": "Injury of maize coleoptiles", "setting": "[1]; .15 mM", "value": "+"}, {"measurement": "Injury of maize coleoptiles", "setting": "[1]; .5 mM", "value": "+"}, {"measurement": "concentration giving significant inhibition of maize callus", "setting": "[7]", "value": 1400, "unit": "nM"}, {"measurement": "modification by the crude extract (catabolase)", "setting": "[3]", "value": "not modified"}, {"measurement": "concentration at which growth of BMS cells was inhibited", "setting": "[4]", "value": 400, "unit": "nM"}]}, {"molecule": "[Mg+2]", "note": "[Mg^++]", "values": [{"measurement": "FB1 Hydrolase activity", "setting": "[6]; treatment 50 mM", "value": "+++"}]}, {"molecule": "O=S(=O)(F)Cc1ccccc1", "note": "[PMSF, Phenylmethyl sulfonyl fluoride]", "values": [{"measurement": "FB1 Hydrolase activity", "setting": "[6]; treatment 10 mM", "value": "+++"}]}, {"molecule": "CCCCCCCCCCCCCC[C@@H](O)[C@@H](O)[C@@H](N)CO", "note": "[Phytosphingosine]", "values": [{"measurement": "modification by the crude extract (catabolase)", "setting": "[3]", "value": "apparently not modified"}]}, {"molecule": "CCCCCCCCCCCCC/C=C/[C@@H](O)[C@@H](N)CO", "note": "[Sphingosine]", "values": [{"measurement": "modification by the crude extract (catabolase)", "setting": "[3]", "value": "apparently not modified"}]}, {"molecule": "CCCCCCCCCCCCCCC[C@@H](O)[C@@H](N)CO", "note": "[sphinganine]", "values": [{"measurement": "modification by the crude extract (catabolase)", "setting": "[3]", "value": "apparently not modified"}]}, {"molecule": "Cholinesterase, butyryl: EC 3.1.1.8, Horse serum, highly purified", "values": [{"measurement": "FB1 hydrolysis", "setting": "[8]", "value": "−"}]}, {"molecule": "Chymotrypsin", "values": [{"measurement": "FB1 Hydrolase activity", "setting": "[6]; [9]", "value": "++"}]}, {"molecule": "Trypsin", "values": [{"measurement": "FB1 Hydrolase activity", "setting": "[6]; [9]", "value": "+++"}]}]}
